Here are results for four compounds from ChEMBL document CHEMBL1201862, “PubChem BioAssay data set” (2004).

Holding throughout (test): NCI-60 cell line screen, 48 h
Test [1] has as its system HCT-116.
For test [2], the system named is OVCAR-4.
In test [3] the test system is LOX IMVI.
Test [4] relates to SF-539.
Test [5] has as its system HOP-62.
Test [6] concerns OVCAR-5.
The subject of test [7] is MDA-MB-231.
Test [8] deals with MOLT-4.
Test [9] concerns SNB-19.
Test [10] has as its system Hs-578T.
The test system of test [11] is SK-MEL-5.
The test system of test [12] is U-251.
For test [13], the system named is UACC-257.
In test [14] the test system is MDA-N.
The subject of test [15] is RXF 393.
For test [16], the system named is MCF7.
The subject of test [17] is SK-MEL-2.
The subject of test [18] is HCT-15.
Test [19] deals with Malme-3M.
For test [20], the system named is OVCAR-8.

Structures are written as SMILES.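 How tested: cells in 96-well plates exposed to compound for 48 hours at five concentrations. At the GI50, growth is halved.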 Activity calls are given as the source filed them. Rule as the data show it: active = GI50 up to about 1.1 µM and inactive = higher.

As for `CC1(C)Oc2ccc3ccc(=O)oc3c2C(O)C1O` (stereo not given), the GI50 in [1] was 38.8 µM (inactive); in [2], 39.5 µM (inactive); in test [3], 29.5 µM (inactive); in test [4], 22.9 µM (inactive); in test [5], 36.1 µM (inactive); in test [6], > 100 µM (inactive). Moreover, the GI50 in test [7] is 71.8 µM (inactive); in test [8] it was 21.7 µM (inactive); in [9], > 100 µM (inactive); in [10], 52.1 µM (inactive); in [11] it was 15.9 µM (inactive); in [12], 38.3 µM (inactive). Further, the GI50 in test [13] was 29.4 µM (inactive); in test [14], 35.1 µM (inactive); in test [15] it was 67.1 µM (inactive); in [16], 33.9 µM (inactive); in test [17] it was > 100 µM (inactive); in [18], 41.9 µM. Moreover, the GI50 is 40.3 µM (inactive) in test [19] and 34 µM (inactive) in [20].

Regarding `CNc1ccc(N)cc1C(=O)N1CCC[C@H]1CO`, the GI50 in [1], in [2], in [3], in [4], in [5] and in test [6] was > 100 µM (inactive) in each case. Further, the GI50 in test [7], in [8], in test [9], in [10], in [11] and in [12] was > 100 µM (inactive) in each case. The GI50 was > 100 µM (inactive) in [13]; > 100 µM (inactive) in test [14]; > 100 µM (inactive) in [15]; > 100 µM (inactive) in [16]; > 100 µM (inactive) in test [17]; greater than 100 µM in test [18]. In addition, the GI50 in test [19] and in [20] was > 100 µM (inactive) in each case.

On to `O=c1[nH]nc(Cc2c[nH]c3ccccc23)o1`, for which the GI50 in test [1], in test [2], in test [3], in test [4], in [5] and in test [6] was > 100 µM (inactive) in each case. Moreover, the GI50 in test [7], in [8], in test [9], in test [10], in test [11] and in [12] was > 100 µM (inactive) in each case. Moreover, the GI50 is > 100 µM (inactive) in test [13]; > 100 µM (inactive) in test [14]; > 100 µM (inactive) in [15]; > 100 µM (inactive) in test [16]; > 100 µM (inactive) in [17]; greater than 100 µM in [18]. The GI50 in test [19] and in [20] was > 100 µM (inactive) throughout.

On to `O=C(COc1ccc(OCC(=O)N2C(=O)CN(c3ccccc3)C2=S)cc1)N1C(=O)CN(c2ccccc2)C1=S`, for which the GI50 in test [1] is > 61.4 µM (inactive); in test [2] it was 31.5 µM (inactive); in test [3], > 25 µM (inactive); in test [4], > 100 µM (inactive); in [5], > 53.2 µM (inactive); in test [6], > 50.9 µM (inactive). For the same compound, the GI50 in test [7] is > 50.1 µM (inactive); in test [8], > 25 µM (inactive); in [9], > 48.4 µM (inactive); in test [10], > 64.4 µM (inactive); in [11] it was > 25 µM (inactive); in test [12] it was > 51.6 µM (inactive). The GI50 in [13] is > 54.7 µM (inactive); in test [14], > 63.1 µM (inactive); in test [15], 55.8 µM (inactive); in test [16], > 54.3 µM (inactive); in test [17], > 51.4 µM (inactive); in [18] it was greater than 54.1 µM. Besides, the results for the GI50 in [19] and in test [20] were > 25 µM (inactive) and > 55.2 µM (inactive), respectively.
